Like-named read-outs stand apart in the source and are kept apart here.
Legend:
[1] = tested on: H3K27me3 mark in HeLa cells (EZH2); assay: H3K27me3 Alpha Hela Assay (AlphaLISA); format: cell-based; settings: HeLa cell assay, Table 3 classes, read-out: EC50 Cellular Activity
Method in brief: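 HeLa cells (1,000/well) treated with ten 3-fold compound doses for 72 h at 37 °C; lysates extracted and H3K27me3 detected by AlphaLISA with anti-K27me3 acceptor beads, biotinylated anti-H3 (3 nM) and streptavidin donor beads. EC50 from DMSO-normalized dose-response curves; duplicate plate assessed viability.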

PRC2 containing wt EZH2 = PRC2 containing wt EZH2 (Homo sapiens (Human), UniProt Q15910); assay: EZH2 residence time assay (100-fold dilution of pre-formed enzyme-inhibitor complex); format: biochemical
Procedure: EZH2 residence time assay: Compound residence times were assessed by monitoring the recovery of enzyme activity following a 100-fold dilution of pre-formed enzyme-inhibitor complex (dilution reaction), and comparing it to the activity of an undiluted control with the same final concentrations of all reagents (control reaction). Enzyme activity was measured by incorporation of ^3H-SAM into a biotinylated H3 peptide. […] For the control reaction, 0.202 nM PRC2 was pre-incubated with 1 μM activating peptide, 1.01 μM SAM, 1.01 μM ^3H-SAM, and compound at 6.06 times its Ki for 2 h in 138.6 μL of buffer, then the reaction was initiated by the addition of 1.4 μL 500 μM substrate peptide in water. Reactions were quenched at various time points spanning up to 10 hours, by transferring 8 μL aliquots from the reaction vessel to a plate containing 8 μL per well of STOP solution (50 mM Tris pH 8.5, 200 mM EDTA, 2 mM SAH). After the last time point, 12 μL of the quenched solutions were transferred to a streptavidin coated FlashPlate (PerkinElmer) containing 40 μL per well of STOP solution, incubated 1-8 h, washed, and read in a TopCount plate reader (PerkinElmer). A custom script was used to fit control reaction progress data to a straight line and dilution reaction progress data:
Where y is the product formed, t is the reaction time, vi is the initial velocity, vs is the steady state velocity, and kobs is the rate constant for the transition from the initial velocity phase of the curve to the steady state velocity phase of the curve. In fitting the dilution reaction progress data, vs was constrained to the slope of the line fitted to the control reaction progress data. The fitted value of kobs was then transformed into residence time:
Where τ is residence time, Ki is the inhibition constant, [EI] is the calculated equilibrium concentration of enzyme-inhibitor complex, [E] is the calculated equilibrium concentration of free enzyme, and [I] is the calculated equilibrium concentration of free inhibitor.

Sequence of PRC2 containing wt EZH2 (Q15910 whole entry): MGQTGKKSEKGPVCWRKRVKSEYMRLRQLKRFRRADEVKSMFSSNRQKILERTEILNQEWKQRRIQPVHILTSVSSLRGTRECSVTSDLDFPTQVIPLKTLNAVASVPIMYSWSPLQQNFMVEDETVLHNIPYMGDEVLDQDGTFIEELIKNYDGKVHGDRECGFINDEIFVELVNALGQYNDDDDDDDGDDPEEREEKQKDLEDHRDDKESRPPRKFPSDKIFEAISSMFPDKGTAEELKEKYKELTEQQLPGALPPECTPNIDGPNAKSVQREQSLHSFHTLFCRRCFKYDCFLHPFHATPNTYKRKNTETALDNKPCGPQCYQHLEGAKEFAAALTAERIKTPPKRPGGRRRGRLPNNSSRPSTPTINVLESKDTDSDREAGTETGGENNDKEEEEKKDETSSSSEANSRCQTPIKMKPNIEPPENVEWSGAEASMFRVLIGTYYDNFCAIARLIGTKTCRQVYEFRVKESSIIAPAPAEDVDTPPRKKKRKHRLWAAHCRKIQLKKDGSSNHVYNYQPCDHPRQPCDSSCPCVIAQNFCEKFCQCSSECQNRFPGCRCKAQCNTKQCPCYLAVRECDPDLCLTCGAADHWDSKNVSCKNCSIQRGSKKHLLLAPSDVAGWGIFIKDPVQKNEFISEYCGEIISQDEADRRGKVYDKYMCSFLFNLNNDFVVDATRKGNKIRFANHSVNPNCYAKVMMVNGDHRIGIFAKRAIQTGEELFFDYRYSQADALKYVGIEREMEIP
Sequence of PRC2 containing wt EZH2 (O75530 whole entry partner): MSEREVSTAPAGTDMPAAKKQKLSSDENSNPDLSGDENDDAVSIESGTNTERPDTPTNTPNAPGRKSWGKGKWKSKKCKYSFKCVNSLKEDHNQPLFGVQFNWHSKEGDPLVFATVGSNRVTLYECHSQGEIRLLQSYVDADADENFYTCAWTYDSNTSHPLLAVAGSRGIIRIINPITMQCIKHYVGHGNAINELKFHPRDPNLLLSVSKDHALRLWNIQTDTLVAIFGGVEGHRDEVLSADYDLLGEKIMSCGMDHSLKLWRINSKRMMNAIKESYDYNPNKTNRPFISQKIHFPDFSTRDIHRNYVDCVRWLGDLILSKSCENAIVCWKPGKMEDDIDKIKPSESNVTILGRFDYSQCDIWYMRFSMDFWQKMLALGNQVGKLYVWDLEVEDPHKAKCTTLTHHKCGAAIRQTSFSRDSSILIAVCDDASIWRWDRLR
Sequence of PRC2 containing wt EZH2 (Q15022 whole entry partner): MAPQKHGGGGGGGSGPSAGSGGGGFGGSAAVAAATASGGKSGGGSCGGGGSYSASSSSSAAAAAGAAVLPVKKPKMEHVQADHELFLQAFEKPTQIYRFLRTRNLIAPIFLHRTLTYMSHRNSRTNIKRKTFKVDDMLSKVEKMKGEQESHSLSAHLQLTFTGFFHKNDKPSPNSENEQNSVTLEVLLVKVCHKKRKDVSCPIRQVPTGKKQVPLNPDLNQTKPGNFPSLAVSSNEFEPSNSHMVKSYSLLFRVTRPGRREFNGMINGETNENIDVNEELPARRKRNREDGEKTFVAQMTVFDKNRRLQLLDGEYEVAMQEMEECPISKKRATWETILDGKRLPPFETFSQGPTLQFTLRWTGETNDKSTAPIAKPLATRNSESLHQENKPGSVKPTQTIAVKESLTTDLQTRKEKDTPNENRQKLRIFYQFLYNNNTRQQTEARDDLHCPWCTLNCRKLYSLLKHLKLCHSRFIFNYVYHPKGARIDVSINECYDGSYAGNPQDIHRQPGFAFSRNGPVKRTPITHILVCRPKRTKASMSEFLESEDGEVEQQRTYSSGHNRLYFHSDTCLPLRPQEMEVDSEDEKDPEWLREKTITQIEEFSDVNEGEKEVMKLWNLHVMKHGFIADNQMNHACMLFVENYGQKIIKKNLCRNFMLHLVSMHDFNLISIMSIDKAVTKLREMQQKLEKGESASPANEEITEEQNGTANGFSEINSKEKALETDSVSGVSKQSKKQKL
Sequence of PRC2 containing wt EZH2 (Q09028 whole entry partner): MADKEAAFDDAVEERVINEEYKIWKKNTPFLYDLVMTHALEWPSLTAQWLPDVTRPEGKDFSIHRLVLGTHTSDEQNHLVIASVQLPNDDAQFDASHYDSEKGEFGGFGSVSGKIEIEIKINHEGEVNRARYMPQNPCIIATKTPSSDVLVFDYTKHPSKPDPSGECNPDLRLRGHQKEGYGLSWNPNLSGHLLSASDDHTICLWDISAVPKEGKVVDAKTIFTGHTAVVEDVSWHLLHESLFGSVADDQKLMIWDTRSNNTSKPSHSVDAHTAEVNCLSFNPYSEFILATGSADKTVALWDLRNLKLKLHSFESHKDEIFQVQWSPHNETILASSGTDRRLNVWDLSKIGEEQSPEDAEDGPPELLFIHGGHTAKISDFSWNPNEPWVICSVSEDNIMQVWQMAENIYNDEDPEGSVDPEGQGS
Sequence of PRC2 containing wt EZH2 (Q6ZN18 whole entry partner): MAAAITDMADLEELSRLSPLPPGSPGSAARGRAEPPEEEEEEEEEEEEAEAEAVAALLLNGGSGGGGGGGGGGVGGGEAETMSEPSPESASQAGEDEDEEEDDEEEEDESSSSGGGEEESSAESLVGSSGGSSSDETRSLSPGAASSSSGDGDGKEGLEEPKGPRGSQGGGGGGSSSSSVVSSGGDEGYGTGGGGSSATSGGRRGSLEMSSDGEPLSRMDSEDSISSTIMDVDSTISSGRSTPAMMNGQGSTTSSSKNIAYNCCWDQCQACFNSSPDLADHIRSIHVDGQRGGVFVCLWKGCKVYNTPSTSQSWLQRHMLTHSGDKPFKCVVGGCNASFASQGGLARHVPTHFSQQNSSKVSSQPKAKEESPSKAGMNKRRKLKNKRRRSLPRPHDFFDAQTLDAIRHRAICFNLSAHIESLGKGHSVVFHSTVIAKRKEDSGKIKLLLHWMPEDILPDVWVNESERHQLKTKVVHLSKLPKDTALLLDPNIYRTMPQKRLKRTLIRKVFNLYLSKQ

SMILES: Cc1cc(C)c(CNC(=O)c2c(C)n([C@H](C)C3CCC(NC4COC4)CC3)c3ccccc23)c(=O)[nH]1 (single isomer, unassigned) [drawing 210]
- EC50 [1]: 25 to 125 nM
- residence time (PRC2 containing wt EZH2): C (a t value of greater than 0.5 hours but less or equal than 5 hours)

SMILES: Cc1cc(Cl)c(CNC(=O)c2c(C)n([C@H](C)C3CCC(NC4COC4)CC3)c3ccccc23)c(=O)[nH]1 (single isomer, unassigned) [drawing 211]
- EC50 [1]: > 125 nM
- residence time (PRC2 containing wt EZH2; read-out: Residence Time): < 30 min

SMILES: Cc1cc(Cl)c(CNC(=O)c2c(C)n([C@H](C)C3CCC(NC4COC4)CC3)c3ccccc23)c(=O)[nH]1 (single isomer, unassigned) [drawing 212]
- EC50 [1]: 25 to 125 nM
- residence time (PRC2 containing wt EZH2): C (a t value of greater than 0.5 hours but less or equal than 5 hours)

SMILES: CSc1cc(C)[nH]c(=O)c1CNC(=O)c1c(C)n([C@H](C)C2CCC(NC3COC3)CC2)c2ccccc12 (single isomer, unassigned) [drawing 213]
- EC50 [1]: < 5 nM
- residence time (PRC2 containing wt EZH2): A (value of greater than 35 hours)

SMILES: CSc1cc(C)[nH]c(=O)c1CNC(=O)c1c(C)n([C@H](C)C2CCC(NC3COC3)CC2)c2ccccc12 (single isomer, unassigned) [drawing 214]
- EC50 [1]: 25 to 125 nM
- residence time (PRC2 containing wt EZH2): C (a t value of greater than 0.5 hours but less or equal than 5 hours)

SMILES: COc1cc(C)[nH]c(=O)c1CNC(=O)c1c(C)n([C@H](C)C2CCC(N3CC(OC)C3)CC2)c2ccccc12 (single isomer, unassigned) [drawing 217]
- EC50 ([1]; Homo sapiens, HeLa): > 125 nM
- residence time (PRC2 containing wt EZH2): < 30 min

SMILES: COc1cc(C)[nH]c(=O)c1CNC(=O)c1c(C)n([C@H](C)C2CCC(N3CC(OC)C3)CC2)c2ccccc12 (single isomer, unassigned) [drawing 218]
- EC50 [1]: > 125 nM
- residence time (PRC2 containing wt EZH2): C (a t value of greater than 0.5 hours but less or equal than 5 hours)

SMILES: COC1CN(C2CCC([C@@H](C)n3c(C)c(C(=O)NCc4c(SC)cc(C)[nH]c4=O)c4ccccc43)CC2)C1 (single isomer, unassigned) [drawing 219]
- EC50 ([1]; Homo sapiens, HeLa): < 5 nM
- residence time (PRC2 containing wt EZH2): A (value of greater than 35 hours)

SMILES: COC1CN(C2CCC([C@@H](C)n3c(C)c(C(=O)NCc4c(SC)cc(C)[nH]c4=O)c4ccccc43)CC2)C1 (single isomer, unassigned) [drawing 220]
- EC50 [1]: 5 to 25 nM
- residence time (PRC2 containing wt EZH2): C (a t value of greater than 0.5 hours but less or equal than 5 hours)

SMILES: Cc1cc(Cl)c(CNC(=O)c2c(C)n([C@H](C)C3OCC(NC(C)(C)C)CO3)c3ccccc23)c(=O)[nH]1 (single isomer, unassigned) [drawing 221]
- EC50 ([1]; Homo sapiens, HeLa): 5 to 25 nM
- residence time (PRC2 containing wt EZH2; read-out: Residence Time): 30 to 300 min

SMILES: CSc1cc(C)[nH]c(=O)c1CNC(=O)c1c(C)n([C@H](C)C2OCC(NC(C)(C)C)CO2)c2ccccc12 (single isomer, unassigned) [drawing 223]
- EC50 [1]: 25 to 125 nM
- residence time (PRC2 containing wt EZH2): D (a t value of less or equal than 0.5 hours)

SMILES: CSc1cc(C)[nH]c(=O)c1CNC(=O)c1c(C)n([C@H](C)C2OCC(NC(C)(C)C)CO2)c2ccccc12 (single isomer, unassigned) [drawing 224]
- EC50 [1]: < 5 nM
- residence time (PRC2 containing wt EZH2): A (value of greater than 35 hours)

SMILES: Cc1cc(Cl)c(CNC(=O)c2c(C)n([C@H](C)C3OCC(NC4(C)COC4)CO3)c3ccccc23)c(=O)[nH]1 (single isomer, unassigned) [drawing 225]
- EC50 [1]: > 125 nM
- residence time (PRC2 containing wt EZH2): D (a t value of less or equal than 0.5 hours)

SMILES: Cc1cc(Cl)c(CNC(=O)c2c(C)n([C@H](C)C3OCC(NC4(C)COC4)CO3)c3ccccc23)c(=O)[nH]1 (single isomer, unassigned) [drawing 226]
- EC50 [1]: 5 to 25 nM
- residence time (PRC2 containing wt EZH2): B (a t value of greater than 5 hours but less or equal than 35 hours)

SMILES: CSc1cc(C)[nH]c(=O)c1CNC(=O)c1c(C)n([C@H](C)C2OCC(NC3(C)COC3)CO2)c2ccccc12 (single isomer, unassigned) [drawing 227]
- EC50 [1]: < 5 nM
- residence time (PRC2 containing wt EZH2): A (value of greater than 35 hours)

SMILES: CSc1cc(C)[nH]c(=O)c1CNC(=O)c1c(C)n([C@H](C)C2OCC(NC3(C)COC3)CO2)c2ccccc12 (single isomer, unassigned) [drawing 228]
- EC50 [1]: > 125 nM
- residence time (PRC2 containing wt EZH2): D (a t value of less or equal than 0.5 hours)

SMILES: Cc1cc(Cl)c(CNC(=O)c2c(C)n([C@H](C)C3OCC(N(C)C)CO3)c3ccccc23)c(=O)[nH]1 (single isomer, unassigned) [drawing 229]
- EC50 [1]: > 125 nM
- residence time (PRC2 containing wt EZH2; read-out: Residence Time): < 30 min

SMILES: Cc1cc(Cl)c(CNC(=O)c2c(C)n([C@H](C)C3OCC(N(C)C)CO3)c3ccccc23)c(=O)[nH]1 (single isomer, unassigned) [drawing 230]
- EC50 [1]: 25 to 125 nM
- residence time (PRC2 containing wt EZH2): D (a t value of less or equal than 0.5 hours)

SMILES: CSc1cc(C)[nH]c(=O)c1CNC(=O)c1c(C)n([C@H](C)C2OCC(N(C)C)CO2)c2ccccc12 (single isomer, unassigned) [drawing 231]
- EC50 [1]: > 125 nM
- residence time (PRC2 containing wt EZH2): D (a t value of less or equal than 0.5 hours)

SMILES: CSc1cc(C)[nH]c(=O)c1CNC(=O)c1c(C)n([C@H](C)C2OCC(N(C)C)CO2)c2ccccc12 (single isomer, unassigned) [drawing 232]
- EC50 [1]: < 5 nM
- residence time (PRC2 containing wt EZH2): B (a t value of greater than 5 hours but less or equal than 35 hours)

SMILES: COC1CCC([C@@H](C)n2c(C)c(C(=O)NCc3c(SC)cc(C)[nH]c3=O)c3ccccc32)CC1 (single isomer, unassigned) [drawing 248]
- EC50 [1]: < 5 nM
- residence time (PRC2 containing wt EZH2): > 2100 min

SMILES: CSc1cc(C)[nH]c(=O)c1CNC(=O)c1c(C)n([C@H](C)C2CCC(O)CC2)c2ccccc12 (single isomer, unassigned) [drawing 250]
- EC50 ([1]; Homo sapiens, HeLa): < 5 nM
- residence time (PRC2 containing wt EZH2): B (a t value of greater than 5 hours but less or equal than 35 hours)

SMILES: CSc1cc(C)[nH]c(=O)c1CNC(=O)c1c(C)n([C@H](C)C2CCC(O)CC2)c2ccccc12 (single isomer, unassigned) [drawing 251]
- EC50 [1]: < 5 nM
- residence time (PRC2 containing wt EZH2): A (value of greater than 35 hours)

SMILES: CSc1cc(C)[nH]c(=O)c1CNC(=O)c1c(C)n([C@H](C)C2CCC(N3CC(OC(F)F)C3)CC2)c2ccccc12 (single isomer, unassigned) [drawing 252]
- EC50 ([1]; Homo sapiens, HeLa): < 5 nM
- residence time (PRC2 containing wt EZH2): > 2100 min

SMILES: CSc1cc(C)[nH]c(=O)c1CNC(=O)c1c(C)n([C@H](C)C2CCC(N3CC(F)C3)CC2)c2ccccc12 (single isomer, unassigned) [drawing 254]
- EC50 ([1]; Homo sapiens, HeLa): < 5 nM
- residence time (PRC2 containing wt EZH2): A (value of greater than 35 hours)

SMILES: CSc1cc(C)[nH]c(=O)c1CNC(=O)c1c(C)n([C@H](C)C2CCC(N3CC(F)C3)CC2)c2ccccc12 (single isomer, unassigned) [drawing 255]
- EC50 [1]: 5 to 25 nM
- residence time (PRC2 containing wt EZH2): C (a t value of greater than 0.5 hours but less or equal than 5 hours)

SMILES: COC1CN(C2CCC([C@@H](C)n3c(C)c(C(=O)NCc4c(SC)cc(C)[nH]c4=O)c4cccnc43)CC2)C1 (single isomer, unassigned) [drawing 259]
- EC50 [1]: 5 to 25 nM
- residence time (PRC2 containing wt EZH2): 300 to 2100 min

SMILES: CCOC1CN(C2CCC([C@@H](C)n3c(C)c(C(=O)NCc4c(SC)cc(C)[nH]c4=O)c4cccnc43)CC2)C1 (single isomer, unassigned) [drawing 261]
- EC50 [1]: < 5 nM
- residence time (PRC2 containing wt EZH2; read-out: Residence Time): 300 to 2100 min

SMILES: CSc1cc(C)[nH]c(=O)c1CNC(=O)c1c(C)n([C@H](C)C2CCC(NC3(C)CCOC3)CC2)c2ccccc12 (single isomer, unassigned) [drawing 269]
- EC50 [1]: 5 to 25 nM
- residence time (PRC2 containing wt EZH2): > 2100 min
